Patent publication US6338962B1, “Use of a non-mammalian DNA virus to express an exogenous gene in a mammalian cell” (priority 1996, dated 2002)

How the values were obtained:
HepG2 cells [1] = test: De novo expression test with inhibitors, β-galactosidase in extracts; type: cell-based, human
Experimental: Second, HepG2 cells were infected with the RSV-lacZ virus and then cultured in the presence of the protein synthesis inhibitor cycloheximide.
To determine whether endosome acidification was necessary for baculovirus-mediated gene transfer into mammalian cells, HepG2 cells were infected with RSV-lacZ AcMNPV in the presence of chloroquine, a lysomotropic agent. HepG2 cells were exposed to AcMNPV virus in media containing or lacking inhibitor for 90 minutes, then the virus-containing media were removed and replaced with fresh media containing or lacking inhibitors as listed.
At one day post-infection, the cells were harvested and extracts were assayed for β-galactosidase activity and protein content. Each value in the table represents the average of three independent assays, with the amount of β-galactosidase produced by the RSV-lacZ AcMNPV virus in the absence of inhibitors assigned a value of 100%. β-galactosidase activity was normalized for protein content of each extract.

Hep G2 = test: Comparison of promoter strengths, β-galactosidase ONPG assay; type: cell-based, human; conditions: for Promoter strength, β-galactosidase: moi 100, 24 hours, mock background subtracted
Text: Baculovirus-mediated Gene Transfer is Enhanced by Butyrate: This example illustrates that butyrate enhances the ability of a baculovirus to express an exogenous gene in a mammalian cell. Five transfer plasmids containing different mammalian promoters were created, as diagrammed in FIG. 18. These vectors were constructed using pSV/BV, a modified version of the baculovirus transfer plasmid pBacPAK9 (Clontech), containing an altered polylinker and SV40 splice and polyadenylation signals. pSV/BV was constructed by restriction of pBacPAK9 with NotI, treatment with T4 DNA polymerase to create blunt ends, and self-ligation to remove the NotI site. A new NotI site was then added by ligation of the linker p[…] into the SmaI site. Finally, SV40 splice and polyadenylation sequences were added by digestion of a variant of pRSVglobin with BglII-BamHI, and insertion of the 850 bp fragment into the BamHI site of the modified BacPAK9, yielding pSV/BV. The human cytomegalovirus immediate early promoter, 758 bp HindIII-XbaI fragment, was excised from PCMV-EBNA (Invitrogen) at HindIII, BamHI and inserted into the HindIII, BamHI sites of pBluescript (SKII^+), yielding plasmid pCMV-SKII^+. The promoter was then excised from CMV-SK II^+ at the XhoI, BamHI sites and inserted into the XhoI, BglII sites of pSV/BV, yielding plasmid pCMV/BV. The 500 bp mouse phosphoglycerate kinase (PGK) promoter was prepared by cutting pKJ1-neo (Tybulewicz et al., 1991, Cell 65: 1153-1163) with EcoRI and made blunt with T4 DNA polymerase to remove the EcoRI site. The resulting pKJ1 plasmid lacking the EcoRI site was amplified by pfu polymerase chain reaction using the primers 5′ […]3′ (SEQ ID NO: 5) and 5′ […]3′ (SEQ ID NO: 6). The amplified PGK promoter was then digested with XhoI and BglII and inserted into the same sites of pSV/BV yielding PKJ1/BV. The 345 bp rat β-actin promoter was excised from pINA (6) at BglII, BamHI and inserted into the BglII site of pSV/BV yielding pβ-actin/BV. The 2.3 kb albumin enhancer and 700 bp albumin promoter were excised from pGEMAlbSVPA (Zaret et al., 1988, Proc. Natl. Acad. Sci. 85:9076-9080) at NaeI, NsiI and inserted into the SmaI, PstI sites of pSV/BV. The RSVlacZ transfer plasmid used (also referred to herein as the Z4 virus) is described above. A 3.0 kb Lac Z cassette was inserted into the NotI site of all of the plasmids constructed (See FIG. 18).
Recombinant viruses were generated by contransfection of the baculovirus transfer vectors with linear BP6 viral DNA (Clontech) into Sf21 cells. The recombinant viruses were purified through three rounds of plaque isolation and amplified on Sf21 cells. The amplified viruses were concentrated by ultracentrifugation as described above and titered by a 96-well method on Sf21 insect cells (O'Reilly et al., 1992, Baculovirus Expression Vectors: A Laboratory Manual, W.H. Freeman, New York, N.Y.).
The human hepatocellular carcinoma cell line HepG2 was infected with each recombinant virus at a multiplicity of infection of 100. Two million cells were infected in a final volume of 1 ml Eagle's Minimum Essential Medium in a 60 mm tissue culture dish. The infection was allowed to proceed for two hours, then 4 ml of complete medium was added to the cells. In a second series of HepG2 infections, the conditions of the first infections were repeated with the exception that after the infection had proceeded for 2 hours 25 μl of sodium butyrate (100 mM) was added to the cells with 1.5 ml complete media. […]

HepG2 cells [2] = test: X-gal histochemical staining of infected cells; type: cell-based, human; conditions: moi 100
Experimental: […] Adherent cell lines were seeded one day prior to infection. Cells were exposed to virus in 2 ml of medium for 90 minutes, and then the virus-containing medium was removed and replaced with fresh medium. Mock-infected cells were treated with 2 ml medium lacking the viral inoculum.
For histochemical staining of β-galactosidase activity, cells were fixed in 2% (w/v) formaldehyde-0.2% (v/v) […] in PBS for 5 minutes. After several rinses with PBS, the cells were stained by the addition of 0.5 mg/ml of X-gal (BRL) in PBS for 2-4 hours at 37° C.

Rat Hepatocytes = test: Comparison of promoter strengths, β-galactosidase ONPG assay; type: cell-based; conditions: Rat Hepatocytes −butyrate

Compound: CCN(CC)CCCC(C)Nc1ccnc2cc(Cl)ccc12 (stereo not drawn) [chloroquine]
- effect on de novo expression of β-galactosidase (HepG2 cells [1]; 25 μM continuously present during and after exposure to virus): completely prevented
- effect on β-galactosidase expression (HepG2 cells [1]; added at 90 minutes after exposure to the virus): only partial inhibition

Compound: CCCC(=O)[O-].[Na+] [sodium butyrate, reference compound]
- effect of addition after infection on β-galactosidase expression (Hep G2; HepG2, added 2 hours after start of infection): detectable levels of β-galactosidase expression with all of the promoters tested

Compound: Albumin
- X-gal staining of cells not treated with butyrate (HepG2 cells [2]): positively stained cells were detected
- Promoter strength, β-galactosidase (Hep G2; Hep G2 +butyrate): 0.08 ± 0.04 Units/mg
- Promoter strength, β-galactosidase (Hep G2; Hep G2 −butyrate): 0.0 ± 0.0 Units/mg
- Promoter strength, β-galactosidase (Hep G2; Hep G2 −butyrate, listed as albumin): no activity above background levels
- change of gene expression after treatment with butyrate (Hep G2; HepG2): increased gene expression
- Promoter strength, β-galactosidase (Rat Hepatocytes): 0.15 ± 0.08 Units/mg
